IC50 data for 19 compounds are collected here from US20230286958A1, “PLASMA KALLIKREIN INHIBITORS” (Merck Sharp & Dohme LLC, priority 2020, published 2023).

For orientation: IC50 means the point on the concentration scale where inhibition reaches its midpoint. A lower IC50 goes with higher potency.

For one test, the target named is human Factor XIa (Homo sapiens (Human), UniProt P03951). The test can be described thus: Factor XIa Assay (fluorogenic substrate GPR-AFC). It counts as biochemical. Conditions: Factor XIa (FXIa).
Chain of human Factor XIa (P03951 388-625 limits assumed): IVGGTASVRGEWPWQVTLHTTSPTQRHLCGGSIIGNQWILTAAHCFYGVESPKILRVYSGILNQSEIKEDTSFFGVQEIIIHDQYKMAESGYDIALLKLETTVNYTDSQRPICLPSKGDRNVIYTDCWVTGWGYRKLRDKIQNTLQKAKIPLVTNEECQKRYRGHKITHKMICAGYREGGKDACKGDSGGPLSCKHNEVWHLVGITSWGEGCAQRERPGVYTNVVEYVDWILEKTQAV
Chain of human Factor XIa (P03951 19-387 partner limits assumed): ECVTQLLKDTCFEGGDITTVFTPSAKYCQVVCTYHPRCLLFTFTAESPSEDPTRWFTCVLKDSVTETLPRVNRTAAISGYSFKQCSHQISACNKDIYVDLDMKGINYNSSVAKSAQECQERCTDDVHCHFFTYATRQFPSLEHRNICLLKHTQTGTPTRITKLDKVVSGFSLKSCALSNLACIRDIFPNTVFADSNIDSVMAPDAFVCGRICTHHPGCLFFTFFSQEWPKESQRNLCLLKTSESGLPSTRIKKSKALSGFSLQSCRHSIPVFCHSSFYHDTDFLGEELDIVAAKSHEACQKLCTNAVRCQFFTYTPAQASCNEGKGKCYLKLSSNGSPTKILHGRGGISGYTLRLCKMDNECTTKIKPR
The target of the next test is Human plasma kallikrein (Homo sapiens (Human), UniProt P03952). The test can be described thus: Kallikrein Assay (fluorogenic substrate Acetyl-K-P-R-AFC). It counts as biochemical. Conditions: Plasma Kallikrein (PKal). Summed up:
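Ki is derived from IC50 with the Cheng-Prusoff equation, and IC50 from the inflection point of a four-parameter logistic curve. The rate of AFC release is read with 0.5 nM purified enzyme and […] substrate at room temperature or 37 °C.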

Chain of Human plasma kallikrein (P03952 391-638): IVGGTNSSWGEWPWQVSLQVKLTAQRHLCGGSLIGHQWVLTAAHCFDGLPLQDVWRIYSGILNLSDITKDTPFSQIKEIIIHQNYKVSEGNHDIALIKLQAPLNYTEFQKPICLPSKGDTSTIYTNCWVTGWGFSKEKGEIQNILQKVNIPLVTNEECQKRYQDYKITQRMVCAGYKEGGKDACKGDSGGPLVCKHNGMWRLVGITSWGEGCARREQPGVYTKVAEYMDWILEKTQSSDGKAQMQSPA
Chain of Human plasma kallikrein (P03952 20-390 partner): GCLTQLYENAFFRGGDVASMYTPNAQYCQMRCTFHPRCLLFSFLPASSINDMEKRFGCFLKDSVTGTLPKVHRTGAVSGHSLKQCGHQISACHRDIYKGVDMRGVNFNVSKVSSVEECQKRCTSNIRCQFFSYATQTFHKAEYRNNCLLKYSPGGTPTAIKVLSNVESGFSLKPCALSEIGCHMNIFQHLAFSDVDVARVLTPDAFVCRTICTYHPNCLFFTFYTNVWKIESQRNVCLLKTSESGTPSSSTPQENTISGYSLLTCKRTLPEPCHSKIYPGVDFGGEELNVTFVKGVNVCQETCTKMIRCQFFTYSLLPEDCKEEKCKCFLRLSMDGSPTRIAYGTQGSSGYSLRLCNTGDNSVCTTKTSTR

On to `Cc1c(C(C)n2cc(NC(=O)c3cncc(-c4c(OC(F)F)ccc(Cl)c4F)n3)cn2)cnc(N2C[C@H]3C[C@H]3C2=O)c1C` (single isomer, unassigned) [Example 104, 6-(3-Chloro-6-(difluoromethoxy)-2-fluorophenyl)-N-(1-((S or R)-1-(4,5-dimethyl-6-((1R,5S)-2-oxo-3-azabicyclo[3.1.0]hexan-3-yl)pyridin-3-yl)ethyl)-1H-pyrazol-4-yl)pyrazine-2-carboxamide], for which the IC50 on human Factor XIa was found to be 420 nM; against Human plasma kallikrein, 1.2 nM.

In the case of `Cc1nc(C(C)n2cc(NC(=O)c3cncc(-c4c(C(F)F)ccc(Cl)c4F)n3)cn2)ccc1N1C[C@H]2C[C@H]2C1=O` (single isomer, unassigned) [Example 60, 6-(3-Chloro-6-(difluoromethyl)-2-fluorophenyl)-N-(1-((S or R)-1-(6-methyl-5-((1R,5S)-2-oxo-3-azabicyclo[3.1.0]hexan-3-yl)pyridin-2-yl)ethyl)-1H-pyrazol-4-yl)pyrazine-2-carboxamide], the IC50 on human Factor XIa was more than 10000 nM; against Human plasma kallikrein, 5.5 nM.

For the compound `Cc1cc(C(C)n2cc(NC(=O)c3nc(-c4c(C(F)F)ccc(Cl)c4F)cnc3C)cn2)nnc1N1C[C@H]2C[C@H]2C1=O` (single isomer, unassigned) [Example 103, 6-(3-Chloro-6-(difluoromethyl)-2-fluorophenyl)-3-methyl-N-(1-((R or S)-1-(5-methyl-6-((1R,5S)-2-oxo-3-azabicyclo[3.1.0]hexan-3-yl)pyridazin-3-yl)ethyl)-1H-pyrazol-4-yl)pyrazine-2-carboxamide], the IC50 against human Factor XIa is 445 nM; against Human plasma kallikrein, 1.8 nM.

For `Cc1ncc(-c2c(OC(F)F)ccc(Cl)c2F)nc1C(=O)Nc1cnn(C(C)c2cnc(N3C[C@H]4C[C@H]4C3=O)c(F)c2C)c1` (single isomer, unassigned) [Example 129, 6-(3-Chloro-6-(difluoromethoxy)-2-fluorophenyl)-N-(1-((S or R)-1-(5-fluoro-4-methyl-6-((1R,5S)-2-oxo-3-azabicyclo[3.1.0]hexan-3-yl)pyridin-3-yl)ethyl)-IH-pyrazol-4-yl)-3-methylpyrazine-2-carboxamide], the IC50 is 3210 nM against human Factor XIa and 4.3 nM against Human plasma kallikrein.

As to `Cc1nc(C(C)n2cc(NC(=O)c3nc(-c4c(C(F)F)ccc(Cl)c4F)cnc3COC(C)(C)C)cn2)cnc1N1C[C@H]2C[C@H]2C1=O` (mixture of isomers) [Example 196, 3-(tert-Butoxymethyl)-6-(3-chloro-6-(difluoromethyl)-2-fluorophenyl)-N-(1-((S and R)-1-(6-methyl-5-((1R,5S)-2-oxo-3-azabicyclo[3.1.0]hexan-3-yl)pyrazin-2-yl)ethyl)-1H-pyrazol-4-yl)pyrazine-2-carboxamide], the IC50 at human Factor XIa was 2090 nM; at Human plasma kallikrein it was 0.9 nM.

Regarding `Cc1cc(Cn2cc(NC(=O)c3nc(-c4c(C(F)F)ccc(Cl)c4F)cnc3C)cn2)nnc1N1C[C@H]2C[C@H]2C1=O` [Example 83, 6-(3-Chloro-6-(difluoromethyl)-2-fluorophenyl)-3-methyl-N-(1-((5-methyl-6-((1R,5S)-2-oxo-3-azabicyclo[3.1.0]hexan-3-yl)pyridazin-3-yl)methyl)-1H-pyrazol-4-yl)pyrazine-2-carboxamide], the results for the IC50 at human Factor XIa and at Human plasma kallikrein were 259 nM and 3.4 nM, respectively.

As for `Cc1cc(C(C)n2cc(NC(=O)c3cc(-c4c(C(F)F)ccc(Cl)c4F)nnc3C)cn2)cnc1N1C[C@H]2C[C@H]2C1=O` (single isomer, unassigned) [Example 122, 6-(3-Chloro-6-(difluoromethyl)-2-fluorophenyl)-3-methyl-N-(1-((R or S)-1-(5-methyl-6-((1R,5S)-2-oxo-3-azabicyclo[3.1.0]hexan-3-yl)pyridin-3-yl)ethyl)-1H-pyrazol-4-yl)pyridazine-4-carboxamide], the IC50 against human Factor XIa was 5260 nM; against Human plasma kallikrein it was 14.2 nM.

Turning to `C[C@@H](c1cnc(N2C[C@H]3C[C@H]3C2=O)nc1)n1cc(NC(=O)c2cncc(-c3c(C(F)F)ccc(Cl)c3F)n2)cn1` [Example 172, 6-(3-Chloro-6-(difluoromethyl)-2-fluorophenyl)-N-(1-((S)-1-(2-((1R,5S)-2-oxo-3-azabicyclo[3.1.0]hexan-3-yl)pyrimidin-5-yl)ethyl)-1H-pyrazol-4-yl)pyrazine-2-carboxamide], the results for the IC50 against human Factor XIa and on Human plasma kallikrein were 6730 nM and 6.4 nM, respectively.

Take `C[C@@H](c1cnc(N2C[C@H]3C[C@H]3C2=O)nc1)n1cc(NC(=O)c2nc(-c3c(C(F)F)ccc(Cl)c3F)cnc2CO)cn1` [Example 193]: the IC50 against human Factor XIa is 441 nM; at Human plasma kallikrein, 0.4 nM.

In the case of `Cc1nc(N2C[C@H]3C[C@H]3C2=O)ncc1C1(n2cc(NC(=O)c3nc(-c4c(C(F)F)ccc(Cl)c4F)cnc3C)cn2)CC1` [Example 54, 6-(3-Chloro-6-(difluoromethyl)-2-fluorophenyl)-3-methyl-N(1-(1-(4-methyl-2-((1R,5S)-2-oxo-3-azabicyclo[3.1.0]hexan-3-yl)pyrimidin-5-yl)cyclopropyl)-1H-pyrazol-4-yl)pyrazine-2-carboxamide], the IC50 at human Factor XIa was determined as 1280 nM; at Human plasma kallikrein, 2.4 nM.

`CC(c1cnc(N2CC3CC3C2=O)nc1)n1cc(NC(=O)c2cncc(-c3c(OC(F)F)ccc(Cl)c3F)n2)cn1` (single isomer, unassigned) [Example 72, 6-(3-Chloro-6-(difluoromethoxy)-2-fluorophenyl)-N-(1-((R or S)-1-(2-((1R,5S or 1S,5R)-2-oxo-3-azabicyclo[3.1.0]hexan-3-yl)pyrimidin-5-yl)ethyl)-1H-pyrazol-4-yl)pyrazine-2-carboxamide]: the half-maximal inhibitory concentration (IC50) at human Factor XIa was 2740 nM; against Human plasma kallikrein, 3.7 nM.

`CC(c1cnc(N2C[C@H]3C[C@H]3C2=O)c(F)c1)n1cc(NC(=O)c2nc(-c3c(C(F)F)ccc(Cl)c3F)cnc2CO)cn1` (single isomer, unassigned) [Example 206, 6-(3-Chloro-6-(difluoromethyl)-2-fluorophenyl)-N-(1-((R or S)-1-(5-fluoro-6-((1R,5S)-2-oxo-3-azabicyclo[3.1.0]hexan-3-yl)pyridin-3-yl)ethyl)-1H-pyrazol-4-yl)-3-(hydroxymethyl)pyrazine-2-carboxamide]: the IC50 was 120 nM at human Factor XIa and 0.3 nM at Human plasma kallikrein.

`CC(c1ncc(N2C[C@H]3C[C@H]3C2=O)cn1)n1cc(NC(=O)c2cncc(-c3c(C(F)F)ccc(Cl)c3F)n2)cn1` (single isomer, unassigned) [Example 5, 6-(3-Chloro-6-(difluoromethyl)-2-fluorophenyl)-N-(1-((S or R)-1-(5-((1R,5S)-2-oxo-3-azabicyclo[3.1.0]hexan-3-yl)pyrimidin-2-yl)ethyl)-1H-pyrazol-4-yl)pyrazine-2-carboxamide]: the IC50 against human Factor XIa was more than 10000 nM; at Human plasma kallikrein it was 17.2 nM.

For the compound `Cc1c(C(C)n2cc(NC(=O)c3nc(-c4c(C(F)F)ccc(Cl)c4F)cnc3CO)cn2)cnc(N2C[C@H]3C[C@H]3C2=O)c1C` (single isomer, unassigned) [Example 202, 6-(3-Chloro-6-(difluoromethyl)-2-fluorophenyl)-N-(1-((R or S)-1-(4,5-dimethyl-6-((1R,5S)-2-oxo-3-azabicyclo[3.1.0]hexan-3-yl)pyridin-3-yl)ethyl)-1H-pyrazol-4-yl)-3-(hydroxymethyl)pyrazine-2-carboxamide], the IC50 at human Factor XIa was determined as 11 nM; at Human plasma kallikrein, 0.3 nM.

Consider `Cc1cc(C(C)n2cc(NC(=O)c3nc(-c4c(C(F)F)ccc(Cl)c4F)cnc3C(C)O)cn2)nnc1N1C[C@H]2C[C@H]2C1=O` (single isomer, unassigned) [Example 231, 6-(3-Chloro-6-(difluoromethyl)-2-fluorophenyl)-3-((R or S)-1-hydroxyethyl)-N-(1-((R or S)-1-(5-methyl-6-((1R,5S)-2-oxo-3-azabicyclo[3.1.0]hexan-3-yl)pyridazin-3-yl)ethyl)-1H-pyrazol-4-yl)pyrazine-2-carboxamide], for which the figures for the IC50 on human Factor XIa and on Human plasma kallikrein were 903 nM and 5 nM, respectively.

As to `Cc1ncc(-c2c(C(F)F)ccc(Cl)c2F)nc1C(=O)Nc1cnn(C(C)c2cnc(N3C[C@H]4C[C@H]4C3=O)c(OC(F)F)c2C)c1` (single isomer, unassigned) [Example 225], the IC50 is 5740 nM against human Factor XIa and 0.9 nM at Human plasma kallikrein.

Regarding `Cc1nc(Cn2cc(NC(=O)c3nc(-c4c(C(F)F)ccc(Cl)c4F)cnc3C)cn2)ccc1N1C[C@H]2C[C@H]2C1=O` [Example 63, 6-(3-Chloro-6-(difluoromethyl)-2-fluorophenyl)-3-methyl-N-(1-((6-methyl-5-((1R,SS)-2-oxo-3-azabicyclo[3.1.0]hexan-3-yl)pyridin-2-yl)methyl)-1H-pyrazol-4-yl)pyrazine-2-carboxamide], the IC50 at human Factor XIa is more than 10000 nM; against Human plasma kallikrein it was 1.7 nM.

Regarding `C[C@H](c1cnc(N2C[C@H]3C[C@H]3C2=O)nc1N)n1cc(NC(=O)c2cncc(-c3c(C(F)F)ccc(Cl)c3F)n2)cn1` [Example 170, N-(1-((R)-1-(4-Amino-2-((1R,5S)-2-oxo-3-azabicvclo[3.1.0]hexan-3-yl)pyrimidin-5-yl)ethyl)-1H-pyrazol-4-yl)-6-(3-chloro-6-(difluoromethyl)-2-fluorophenyl)pyrazine-2-carboxamide], the IC50 is more than 10000 nM against human Factor XIa and 20.7 nM against Human plasma kallikrein.

On to `Cc1ncc(-c2c(C(F)F)ccc(Cl)c2F)nc1C(=O)Nc1cnn(C(C)c2cnc(N3C[C@H]4C[C@H]4C3=O)c(F)c2C)c1` (single isomer, unassigned) [Example 127, 6-(3-Chloro-6-(difluoromethyl)-2-fluorophenyl)-N-(1-((S or i)-1-(5-fluoro-4-methyl-6-((1R,5S)-2-oxo-3-azabicyclo[3.1.0]hexan-3-yl)pyridin-3-yl)ethyl)-1H-pyrazol-4-yl)-3-methylpyrazine-2-carboxamide], for which the IC50 against human Factor XIa was determined as 596 nM; at Human plasma kallikrein, 0.5 nM.
